Measurements reported in PubChem BioAssay AID463206 (Broad Institute, 2010).
Activity calls are given as the source filed them.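 The calls were made as follows: active = caspase luminescence falls with dose and the half-maximal concentration AC50 from the fitted curve is at or below a set limit; inconclusive = flat fit at 30 to 70% signal loss, or invalid fit; inactive = AC50 above the limit, or signal rises instead.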

Test system: INS-1E cytokine-induced caspase-3/7, Caspase-Glo luminescence, 48 h
Assay: inhibitors of cytokine-induced caspase-3/7 activity, dose response, orthogonal assay for beta-cell apoptosis protection project, INS-1E rat cells, luminescence (AID 463206)

SMILES	AC50
CC1Cc2cc(S(=O)(=O)N3CCC(C(=O)N4CCN(c5ccccc5F)CC4)CC3)ccc2N1C(=O)C1CC1 (configuration not stated)	> 26 µM (inactive)
COc1ccc(C2NCCc3c2[nH]c2ccccc32)cc1COc1ccc(F)cc1 (configuration not stated)	> 26 µM (inactive)
CC1(C)N=C(N)N=C(N)N1c1ccc(OCCCOc2ccccc2)c(Cl)c1	> 26 µM (inactive)
COc1ccc(-c2c[n+](CC(=O)OC3CC(C)CCC3C(C)C)c3n2CCC3)cc1 (configuration not stated)	> 26 µM (inactive)
CCOC(=O)c1c(C)[nH]c(C(=O)OCC(=O)NC(C)(C)C)c1C	> 26 µM (inactive)
Cc1nn(S(=O)(=O)c2ccc(Cl)cc2)c(C)c1Sc1ccc([N+](=O)[O-])cc1	> 26 µM (inactive)
CC(=O)Oc1c(I)cc(I)cc1C(=O)Nc1ccc(Cl)cc1	> 26 µM (inactive)
Cc1nc2c(-c3ccc(Cl)cc3)c(C)[nH]n2c(=O)c1Cc1ccccc1	> 26 µM (inactive)
O=C1CSC(c2ccccc2F)N1 (configuration not stated)	> 26 µM (inactive)
O=C(CSC1c2ccccc2-c2ccccc21)N/N=C/c1ccccc1O	> 26 µM (inactive)
O=[N+]([O-])c1ccc(/C=N/n2c(CO)nc3ccccc32)s1	> 26 µM (inactive)
c1ccc(-c2cc(-c3ccccc3)[n+](-c3ccccc3)c(-c3ccccc3)c2)cc1	> 26 µM (inactive)
CCn1c(C)c(C)c2cc(C(=O)N3CCc4ccccc4C3)ccc21	> 26 µM (inactive)
CCC(CNc1cc(OC)cc2cccnc12)NC1CCCCC1 (configuration not stated)	> 26 µM (inactive)
c1ccc2c(c1)ncn2CCCCOc1ccc2c(c1)CCC2	> 26 µM (inactive)
Cc1cc(C)n(CCC(=O)N/N=C/c2c(O)ccc3ccccc23)n1	> 26 µM (inactive)
C=CCc1cccc(/C=N/NC(=O)c2ccc3nc[nH]c3c2)c1O	> 26 µM (inactive)
Cc1ccc(C(=O)Nc2nc(-c3ccccn3)cs2)s1	> 26 µM (inactive)
Cc1cc[n+](C(C)C(=O)c2ccc(-c3ccccc3)cc2)cc1 (configuration not stated)	> 26 µM (inactive)
COC(=O)c1nc(-c2ccc3c(n2)C(=O)C(N)=C(OC)C3=O)c(N)c(-c2ccc(OC)c(OC)c2O)c1C	> 26 µM (inactive)
O=C(c1ccccc1)C(CCC(CN1CCOCC1)C(=O)c1ccccc1)CN1CCOCC1 (configuration not stated)	> 26 µM (inactive)
CCN(CC)c1ccc(/C=N/NC(=O)c2nnn(-c3nonc3N)c2C(C)C)c(O)c1	> 26 µM (inactive)
CCC[C@@H](CN1CCC[C@H]1CN1C(N)=NC[C@@H]1Cc1ccccc1)N1C[C@@H]([C@H](C)CC)N(CCCC2CCCC2)C1=N	> 26 µM (inactive)
COc1ccc(CNC(=O)c2c(C)oc3c2C(=O)c2ccccc2C3=O)cc1	> 26 µM (inactive)

SMILES	AC50
COc1ccc2c(c1)N(C)/C(=C/c1cccc[n+]1C)S2	> 26 µM (inactive)
c1ccc(C(c2ccccc2)N2CCN(c3nc4ccccc4n4cnnc34)CC2)cc1	> 26 µM (inactive)
COc1c(CC=C(C)C)cc(C2CC(=O)c3c(O)cc(O)cc3O2)cc1CC=C(C)C (configuration not stated)	> 26 µM (inactive)
COc1ccc(C(NC(=O)C(C)C)c2ccc3cccnc3c2O)cc1 (configuration not stated)	> 26 µM (inactive)
Cc1oc2c(c1C(=O)N1CCC(C)CC1)C(=O)c1ccccc1C2=O	> 26 µM (inactive)
O=C(Nc1ccc(-c2noc(-c3cccs3)n2)cc1)c1cccnc1	> 26 µM (inactive)
CC(C)(C)n1ncc2c(=O)n(Cc3cccc(Cn4cnc5c(cnn5C(C)(C)C)c4=O)c3F)cnc21	> 26 µM (inactive)
Clc1ccc(C(Cn2ccnc2)OCc2csc3c(Cl)cccc23)c(Cl)c1 (configuration not stated)	> 26 µM (inactive)
O=C(N/N=C\c1cc(Br)ccc1O)c1ccc(S(=O)(=O)N2CCCCC2)cc1	> 26 µM (inactive)
CCSC1=NCCN1C(=O)C(C)(C)Oc1ccc(Cl)cc1	> 26 µM (inactive)
Cc1ccc(NNC(=O)c2ccno2)cc1Cl	> 26 µM (inactive)
Cc1cccc(NC(=O)c2nc(S(=O)(=O)Cc3ccccc3)ncc2Cl)c1	> 26 µM (inactive)
C=CCc1cccc(/C=N/NC(=O)CCC(=O)Nc2ccc(F)cc2)c1O	> 26 µM (inactive)
CC(CNC(=O)c1ccc(OC2CCN(Cc3ccccn3)CC2)cc1)Oc1cccnc1 (configuration not stated)	> 26 µM (inactive)
Cc1onc(-c2ccccc2)c1C(=O)NC(=S)NNC(=O)c1ccc(O)cc1O	> 26 µM (inactive)
C[C@H]1CCC/C=C/C2C[C@H](O)CC2[C@H](O)/C=C/C(=O)O1 (some centres not stated)	> 26 µM (inactive)
COc1ccccc1C(CCNCc1ccc(N(C)C)cc1)c1ccc(OC(C)C)cc1 (configuration not stated)	> 26 µM (inactive)
Cn1c(SCC(=O)N/N=C/c2ccc([N+](=O)[O-])s2)nnc1-c1ccc(Cl)cc1	> 26 µM (inactive)
O=C(NC(c1ccc(Cl)cc1)c1cc(Cl)c2cccnc2c1O)c1cccnc1 (configuration not stated)	> 26 µM (inactive)
CC(Nc1ncnc2ccccc12)c1ccccc1 (configuration not stated)	> 26 µM (inactive)
Cn1cc(CNCc2ccc(OC(F)(F)F)cc2)c(-c2ccc3c(c2)OCCO3)n1	> 26 µM (inactive)
COc1ccc(CC(=O)Nc2cccc(-c3nnc(-c4cccc(C)c4)o3)c2)cc1OC	> 26 µM (inactive)
Cc1cc(C)c[n+](C2=C([O-])c3ccccc3C(=O)/C2=N\S(=O)(=O)c2cccs2)c1	> 26 µM (inactive)
